Where two headings read alike, the source gives them in different places.
Tested on: PKC mediated IL-2 production in human primary T cells
Assay: IL-2 ELISA, human primary T cell, anti CD3+CD28+ (whole cell functional assay for PKC mediated IL-2 production)
Assay type: cell-based
Procedure, shortened: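 IL-2 in supernatants was quantified by ELISA after 24 h at 37 °C. Before stimulation with plate-coated anti-CD3 (1 μg/ml) and anti-CD28 (5 μg/ml), T cells expanded from PBMC were exposed to compound for 1 h; the counter-screen replaced antibodies with PMA 0.5 ng/ml and ionomycin 0.1 μM (final).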

[1] = 24 h, human primary T cells stimulated with anti-CD3 + anti-CD28, IL-2 by ELISA, read-out: IC50 for blocking IL-2 production
[2] = human primary T cells stimulated with anti-CD3 + anti-CD28, 24 h, IL-2 by ELISA, 8 pt, read-out: IL2 ELISA, Human primary T cell, anti-CD3 + CD28, 8 pt (IC50)

IC50 [1] | IC50 [2] | Compound
< 30 µM | 7.94 µM | COc1cc(Nc2ncc(N(C)C)c(NC[C@@H]3CCCN4CCCC[C@H]34)n2)cc(-n2nnnc2C)c1 [Compound 91, N4-(((1S,9aR)-octahydro-1H-quinolizin-1-yl)methyl)-N2-(3-methoxy-5-(5-methyl-1H-tetrazol-1-yl)phenyl)-N5,N5-dimethylpyrimidine-2,4,5-triamine]
< 30 µM | 9.46 µM | CN(C)c1cnc(Nc2cccc(C#N)c2)nc1NC[C@@H]1CCCN2CCCC[C@H]12 [Compound 92, 3-(4-(((1S,9aR)-octahydro-1H-quinolizin-1-yl)methylamino)-5-(dimethylamino)pyrimidin-2-ylamino)benzonitrile]
< 30 µM | 3.92 µM | Cc1ccc(Nc2ncc(N(C)C)c(NC[C@@H]3CCCN4CCCC[C@H]34)n2)cc1C#N [Compound 93, 5-(4-(((1S,9aR)-octahydro-1H-quinolizin-1-yl)methylamino)-5-(dimethylamino)pyrimidin-2-ylamino)-2-methylbenzonitrile]
< 30 µM | 2.57 µM | CN(C)c1cnc(Nc2ccc(C3CC3)c(C#N)c2)nc1NC[C@@H]1CCCN2CCCC[C@H]12 [Compound 94, 5-(4-(((1S,9aR)-octahydro-1H-quinolizin-1-yl)methylamino)-5-(dimethylamino)pyrimidin-2-ylamino)-2-cyclopropylbenzonitrile]
< 30 µM | 1.74 µM | CN(C)c1cnc(Nc2cc(C#N)c(C3CC3)cc2F)nc1NC[C@@H]1CCCN2CCCC[C@H]12 [Compound 95, 5-(4-(((1S,9aR)-octahydro-1H-quinolizin-1-yl)methylamino)-5-(dimethylamino)pyrimidin-2-ylamino)-2-cyclopropyl-4-fluorobenzonitrile]
< 30 µM | 4.98 µM | COc1cc(Nc2ncc(N(C)C)c(NC[C@@H]3CCCN4CCCC[C@H]34)n2)cc(OC)c1 [Compound 96, N4-(((1S,9aR)-octahydro-1H-quinolizin-1-yl)methyl)-N2-(3,5-dimethoxyphenyl)-N5,N5-dimethylpyrimidine-2,4,5-triamine]
< 30 µM | 5.41 µM | CN(C)c1cnc(Nc2ccc3oc(=O)[nH]c3c2)nc1NC[C@@H]1CCCN2CCCC[C@H]12 [Compound 97, 5-(4-(((1S,9aR)-octahydro-1H-quinolizin-1-yl)methylamino)-5-(dimethylamino)pyrimidin-2-ylamino)benzo[d]oxazol-2(3H)-one]
< 30 µM | 0.0774 µM | CC1(C)Oc2ccc(Nc3ncc(F)c(NC[C@@H]4CCCN5CCCC[C@H]45)n3)cc2-n2nnnc21 [Compound 98, N2-(4,4-dimethyl-4H-5-oxa-1,2,3,9b-tetraaza-cyclopenta[a]naphthalen-8-yl)-5-fluoro-N4-(((1S,9aR)-octahydro-1H-quinolizin-1-yl)methyl)-pyrimidine-2,4-diamine]
< 30 µM | 0.0509 µM | Cn1nnn(-c2cc(Nc3ncc(C#N)c(NC[C@@H]4CCCN5CCCC[C@H]45)n3)c(F)cc2C2CC2)c1=O [Compound 99, 4-(((1S,9aR)-octahydro-1H-quinolizin-1-yl)methylamino)-2-(4-cyclopropyl-2-fluoro-5-(4,5-dihydro-4-methyl-5-oxotetrazol-1-yl)phenylamino)pyrimidine-5-carbonitrile]
< 30 µM | 4.21 µM | Fc1cc(C2CC2)c(-n2cnnn2)cc1Nc1ncc(C(F)(F)F)c(NC[C@@H]2CCCN3CCCC[C@H]23)n1 [Compound 100, N2-(4-cyclopropyl-2-fluoro-5-(1H-tetrazol-1-yl)phenyl)-5-(trifluoromethyl)-N4-(((1S,9aR)-octahydro-1H-quinolizin-1-yl)methyl)pyrimidine-2,4-diamine]
< 30 µM | 10.7 µM | Cc1ccc(Nc2ncc(C(F)(F)F)c(NC[C@@H]3CCCN4CCCC[C@H]34)n2)cc1-n1cnnn1 [Compound 101, 5-(trifluoromethyl)-N4-(((1S,9aR)-octahydro-1H-quinolizin-1-yl)methyl)-N2-(4-methyl-3-(1H-tetrazol-1-yl)phenyl)pyrimidine-2,4-diamine]
< 30 µM | 12.6 µM | Cn1nnn(-c2cc(Nc3ncc(C(F)(F)F)c(NC[C@@H]4CCCN5CCCC[C@H]45)n3)c(F)cc2C2CC2)c1=O [Compound 102, 1-(5-(4-(((1S,9aR)-octahydro-1H-quinolizin-1-yl)methylamino)-5-(trifluoromethyl)pyrimidin-2-ylamino)-2-cyclopropyl-4-fluorophenyl)-4-methyl-1H-tetrazol-5(4H)-one]
< 30 µM | 26.6 µM | Cc1nnnn1-c1cc(Nc2ncc(C(F)(F)F)c(NC[C@@H]3CCCN4CCCC[C@H]34)n2)ccc1F [Compound 103, N2-(4-fluoro-3-(5-methyl-1H-tetrazol-1-yl)phenyl)-5-(trifluoromethyl)-N4-(((1S,9aR)-octahydro-1H-quinolizin-1-yl)methyl)pyrimidine-2,4-diamine]
< 30 µM | 26.8 µM | Cc1nnnn1-c1ccc(F)c(Nc2ncc(C(F)(F)F)c(NC[C@@H]3CCCN4CCCC[C@H]34)n2)c1 [Compound 104, N2-(2-fluoro-5-(5-methyl-1H-tetrazol-1-yl)phenyl)-5-(trifluoromethyl)-N4-(((1S,9aR)-octahydro-1H-quinolizin-1-yl)methyl)pyrimidine-2,4-diamine]
< 30 µM | 11.8 µM | COc1ccc(Nc2ncc(C(F)(F)F)c(NC[C@@H]3CCCN4CCCC[C@H]34)n2)cc1-n1nnnc1C [Compound 105, 5-(trifluoromethyl)-N4-(((1S,9aR)-octahydro-1H-quinolizin-1-yl)methyl)-N2-(4-methoxy-3-(5-methyl-1H-tetrazol-1-yl)phenyl)pyrimidine-2,4-diamine]
< 30 µM | 21.5 µM | COc1cc(Nc2ncc(C(F)(F)F)c(NC[C@@H]3CCCN4CCCC[C@H]34)n2)cc(-n2nnnc2C)c1 [Compound 106, 5-(trifluoromethyl)-N4-(((1S,9aR)-octahydro-1H-quinolizin-1-yl)methyl)-N2-(3-methoxy-5-(5-methyl-1H-tetrazol-1-yl)phenyl)pyrimidine-2,4-diamine]
< 30 µM | 17.1 µM | N#Cc1cccc(Nc2ncc(C(F)(F)F)c(NC[C@@H]3CCCN4CCCC[C@H]34)n2)c1 [Compound 107, 3-(4-(((1S,9aR)-octahydro-1H-quinolizin-1-yl)methylamino)-5-(trifluoromethyl)pyrimidin-2-ylamino)benzonitrile]
< 30 µM |  | Cc1ccc(Nc2ncc(C(F)(F)F)c(NC[C@@H]3CCCN4CCCC[C@H]34)n2)cc1C#N [Compound 108, 5-(4-(((1S,9aR)-octahydro-1H-quinolizin-1-yl)methylamino)-5-(trifluoromethyl)pyrimidin-2-ylamino)-2-methylbenzonitrile]
< 30 µM | 6.58 µM | N#Cc1cc(Nc2ncc(C(F)(F)F)c(NC[C@@H]3CCCN4CCCC[C@H]34)n2)ccc1C1CC1 [Compound 109, 5-(4-(((1S,9aR)-octahydro-1H-quinolizin-1-yl)methylamino)-5-(trifluoromethyl)pyrimidin-2-ylamino)-2-cyclopropylbenzonitrile]
< 30 µM | 10.7 µM | N#Cc1cc(Nc2ncc(C(F)(F)F)c(NC[C@@H]3CCCN4CCCC[C@H]34)n2)c(F)cc1C1CC1 [Compound 110, 5-(4-(((1S,9aR)-octahydro-1H-quinolizin-1-yl)methylamino)-5-(trifluoromethyl)pyrimidin-2-ylamino)-2-cyclopropyl-4-fluorobenzonitrile]
< 30 µM | 12.5 µM | COc1cc(Nc2ncc(C(F)(F)F)c(NC[C@@H]3CCCN4CCCC[C@H]34)n2)cc(OC)c1 [Compound 111, 5-(trifluoromethyl)-N4-(((1S,9aR)-octahydro-1H-quinolizin-1-yl)methyl)-N2-(3,5-dimethoxyphenyl)pyrimidine-2,4-diamine]
< 30 µM | 21.7 µM | O=c1[nH]c2cc(Nc3ncc(C(F)(F)F)c(NC[C@@H]4CCCN5CCCC[C@H]45)n3)ccc2o1 [Compound 112, 5-(4-(((1S,9aR)-octahydro-1H-quinolizin-1-yl)methylamino)-5-(trifluoromethyl)pyrimidin-2-ylamino)benzo[d]oxazol-2(3H)-one]
< 30 µM | 0.018 µM | COc1ccc(Nc2ncc(C#N)c(NC[C@@H]3CCCN4CCCC[C@H]34)n2)cc1-n1nnnc1C [Compound 113, 4-(((1S,9aR)-octahydro-1H-quinolizin-1-yl)methylamino)-2-(4-methoxy-3-(5-methyl-1H-tetrazol-1-yl)phenylamino)pyrimidine-5-carbonitrile]
< 30 µM | 0.0365 µM | Cc1nnnn1-c1cc(Nc2ncc(C#N)c(NC[C@@H]3CCCN4CCCC[C@H]34)n2)ccc1F [Compound 114, 4-(((1S,9aR)-octahydro-1H-quinolizin-1-yl)methylamino)-2-(4-fluoro-3-(5-methyl-1H-tetrazol-1-yl)phenylamino)pyrimidine-5-carbonitrile]
< 30 µM | 0.0225 µM | COc1cc(Nc2ncc(C#N)c(NC[C@@H]3CCCN4CCCC[C@H]34)n2)cc(-n2nnnc2C)c1 [Compound 115, 4-(((1S,9aR)-octahydro-1H-quinolizin-1-yl)methylamino)-2-(3-methoxy-5-(5-methyl-1H-tetrazol-1-yl)phenylamino)pyrimidine-5-carbonitrile]
< 30 µM | 0.0074 µM | N#Cc1cnc(Nc2cc(-n3cnnn3)c(C3CC3)cc2F)nc1NC[C@@H]1CCCN2CCCC[C@H]12 [Compound 116, 4-(((1S,9aR)-octahydro-1H-quinolizin-1-yl)methylamino)-2-(4-cyclopropyl-2-fluoro-5-(1H-tetrazol-1-yl)phenylamino)pyrimidine-5-carbonitrile]

From patent US9913843B2, “Protein kinase C inhibitors and uses thereof” (Rigel Pharmaceuticals, Inc., priority 2012, dated 2018)
